From patent US8211463B2, “Use of glycolipids as adjuvants” (Helmholtz-Zentrum Fuer Infektionsforschung GmbH, priority 2006, dated 2012)

Tested on: IFN-γ, IL-2, IL-4, IL-5, and TNFα
Experiment: Cytometric bead array of cytokines in supernatants of restimulated spleen cells
Assay type: in vivo, Balb/c mice
Settings: i.n., 10 μg glycolipid, restimulation with β-Gal antigen for 4 days
Experimental: Co-administration of β-Gal with 10 μg glycolipid 5 represented both Th1 and Th2 cytokine profiles activities in Balb/c mice. 10 days after the final immunization, the immunized Balb/c mice were sacrificed. A total of 5×10^6 cells/ml were stimulated with different concentrations of the β-Gal antigen for 4 days, and the levels of IFNγ and IL-4 in the supernatant were examined by the BD Cytometric bead array. Cytokine production of the spleen cells were analyzed using BD CBA kit according to the manufacturer's instructions. […] Curves represent cytokine concentration (pg/ml) and Stimulation index (SI) in response to enhanced antigen concentration in each group. Each group consists of five mice. Data are representative of two separate experiments.
To characterize the type of Th response stimulated following immunization, the content of IFN-γ, IL-2, IL-4, IL-5, and TNFα was measured in supernatants from in vitro re-stimulated spleen cells (FIGS. 8 and 9) by the Cytometric Bead Array. Culture supernatants from proliferating cells were collected on days 2 and 4, and stored at −70° C. Determinations of IFN-γ, TNFα, IL-2, IL-4, and IL-5 were performed by cytometric bead array analysis using the commercial kit from BectonDickinson, according to the manufacturer's instructions. […] The probes were analyzed subsequently by flow cytometry as described in the protocol of BD.

Compound: CCCCCCCCCCCCCCOCC(COCCCCCCCCCCCCCC)O[C@@H]1O[C@H](CO)[C@@H](O[C@H]2O[C@H](CO)[C@@H](O)[C@H](O)[C@H]2O)[C@H](O)[C@H]1O [glycolipid 5, 1,3-Di-O-tetradecyl-2-O-[4′-O-(α-D-glucopyranosyl)-β-D-glucopyranosyl]-sn-glycerol]
- expression of proinflammatory (TNFα), Th1 (IFNγ and IL-2) and Th2 (IL-5) cytokines by spleen cells: enhanced expression
